Test results reported in US20220137060A1, “FULL LENGTH KINASE ACTIVITY-CONFORMATION REPORTER” (UNIVERSITAT INNSBRUCK, priority 2016, published 2022).
“Also recorded” adds a separate entry of the source.

What was measured:
Type in all cases: cell-based
[1] = biological target: T1, BRAF-V600E (Homo sapiens, UniProt P15056, V600E); test: Intramolecular Rluc PCA reporter F[1]-BRAF(V600E)-F[2], transiently transfected HEK293 cells; conditions: HEK293, 1 μM; for Effect on reporter bioluminescence signal / conformation: BRAF V600E reporter, 3 h treatments (FIG. 5B, 6B)
T1 construct: Renilla luciferase PCA fragment F[1]; Renilla luciferase PCA fragment F[2]; expressed in transfected cells; host or cells: HEK293 (transient, pcDNA3.1)
T1 sequence (P15056 with tags, fused parts or gaps V600E): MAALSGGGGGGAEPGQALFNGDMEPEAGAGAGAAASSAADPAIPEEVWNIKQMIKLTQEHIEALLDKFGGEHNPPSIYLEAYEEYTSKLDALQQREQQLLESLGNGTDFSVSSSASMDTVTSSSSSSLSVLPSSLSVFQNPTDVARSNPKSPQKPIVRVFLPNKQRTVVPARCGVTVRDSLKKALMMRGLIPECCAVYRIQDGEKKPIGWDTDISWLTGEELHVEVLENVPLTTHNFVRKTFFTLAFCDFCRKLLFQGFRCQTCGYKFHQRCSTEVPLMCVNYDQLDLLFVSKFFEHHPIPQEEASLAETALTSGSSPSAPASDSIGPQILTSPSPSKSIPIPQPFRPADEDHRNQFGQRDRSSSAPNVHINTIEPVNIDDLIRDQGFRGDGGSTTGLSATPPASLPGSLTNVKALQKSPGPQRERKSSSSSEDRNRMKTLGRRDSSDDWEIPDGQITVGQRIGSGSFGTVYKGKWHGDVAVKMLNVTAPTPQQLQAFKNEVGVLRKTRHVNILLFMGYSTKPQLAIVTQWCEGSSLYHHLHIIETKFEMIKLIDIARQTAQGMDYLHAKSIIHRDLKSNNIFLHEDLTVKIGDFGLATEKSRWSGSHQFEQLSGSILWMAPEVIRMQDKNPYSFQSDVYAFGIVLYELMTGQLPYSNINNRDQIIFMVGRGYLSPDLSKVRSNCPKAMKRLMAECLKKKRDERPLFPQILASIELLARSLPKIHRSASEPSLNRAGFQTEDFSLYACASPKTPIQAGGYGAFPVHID
Description: (§1) Cell culture and antibodies. HEK293 and SW480 cells were grown in DMEM supplemented with 10% (vol/vol) FBS. Cells were passaged three times a week to keep the cells in culture. Transient transfections were performed with Transfectin reagent (Bio-Rad, #1703350). […] The primary antibody used was anti-BRAF(F-7) (Santa Cruiz Biotechnology, #sc-5284).
(§2) Expression constructs. The Rluc PCA hybrid proteins F[1]-BRAF-F[2] and F[1]-BRAF(V600E)-F[2] have been generated using the identical cloning approach. Following PCR amplification of the human BRAF or BRAF(V600E) gene, the coding region of the BRAF protein (SEQ ID No: 2 or 5) was fused N-terminally with F[1] (SEQ ID No: 13) and C-terminally with F[2] (SEQ ID No: 17) of the Rluc PCA coding region. In addition. the sequence of two interjacent 10-aa linkers (GGGGS)2 (SEQ ID No: 18) was integrated by cloning. As vector backbone we used the pcDNA3.1 plasmid. The MEK1 expression constructs (s. SEQ ID No: 23) and the Gluc PCA based BRAF reporter (s. SEQ ID No: 24) were prepared analogously.
Mutagenesis. Site directed mutagenesis have been performed to generate following mutations in the reporter constructs: V600E, V600K, V600R, D594G, and G469A in BRAF and S218A and the S218E/S222E double mutation in MEK1.
(§3) Renilla/Gaussia luciferase PCA experiments. Cells were grown in DMEM supplemented with 10% FBS. Indicated versions of the Rluc PCA based biosensor were transiently overexpressed in 24-well plate format. 48 hours post-transfection, the growth medium was partially removed and different compounds added with concentrations as indicated in the figure legends. To measure the dose-dependent effect of the lead molecules (candidate compounds) on the intramolecular Rluc PCA reporter, the attached cells were treated with different concentrations and for different time-frames. The time-dependent consequences of the lead compounds on kinase conformations were recorded with a final compound concentration of 1 μM. For the Rluc PCA measurements the growth medium was carefully removed and the cells were washed with PBS. Cells were resuspended in PBS and the cell suspensions were transferred to 96-well plates and subjected to luminescence analysis using the LMaxTM-II-384 luminometer (Molecular Devices). Rluc luminescence signals were integrated for 10 seconds with a delay time of 3 seconds following addition of 20 μl of the Rluc substrate benzyl-coelenterazine (5 μM; Nanolight, #301) in PBS with a concentration of 25 nM. Dose-dependent effects of drug exposure on luminescence signals originating from BRAF conformations were compared using indicated controls. Cells were collected after PCA measurements and lysed with Laemmli sample buffer to control the protein expression levels. In case of Gluc reporters, coelenterazine was used as luminescence substrate.

[2] = biological target: BRAF V600K (Homo sapiens, UniProt P15056, V600K); test: Intramolecular Rluc PCA mutant BRAF reporter (V600K), transiently transfected HEK293 cells; conditions: HEK293, 1 μM, 3 h treatments (FIG. 5B)
BRAF V600K, sequence (P15056 with tags, fused parts or gaps V600K): as the sequence (P15056 with tags, fused parts or gaps V600E) above, with E600K counted along it
Description: as §1
(§4) Expression constructs. The Rluc PCA hybrid proteins F[1]-BRAF-F[2] and F[1]-BRAF(V600E)-F[2] have been generated using the identical cloning approach. Following PCR amplification of the human BRAF or BRAF(V600E) gene, the coding region of the BRAF protein (SEQ ID No: 2 or 5) was fused N-terminally with F[1] (SEQ ID No: 13) and C-terminally with F[2] (SEQ ID No: 17) of the Rluc PCA coding region. […]
(§5) Renilla/Gaussia luciferase PCA experiments. […] The time-dependent consequences of the lead compounds on kinase conformations were recorded with a final compound concentration of 1 μM. […] Cells were resuspended in PBS and the cell suspensions were transferred to 96-well plates and subjected to luminescence analysis using the LMaxTM-II-384 luminometer (Molecular Devices). Rluc luminescence signals were integrated for 10 seconds with a delay time of 3 seconds following addition of 20 μl of the Rluc substrate benzyl-coelenterazine (5 μM; Nanolight, #301) in PBS with a concentration of 25 nM. […] In case of Gluc reporters, coelenterazine was used as luminescence substrate.

[3] = biological target: BRAF V600R (Homo sapiens, UniProt P15056, V600R); test: Intramolecular Rluc PCA mutant BRAF reporter (V600R), transiently transfected HEK293 cells; conditions: HEK293, 1 μM, 3 h treatments (FIG. 5B)
BRAF V600R, sequence (P15056 with tags, fused parts or gaps V600R): as the sequence (P15056 with tags, fused parts or gaps V600E) above, with E600R counted along it
Description: as §1, §4, §5

[4] = biological target: BRAF D594G (Homo sapiens, UniProt P15056, D594G); test: Intramolecular Rluc PCA mutant BRAF reporter (D594G), transiently transfected HEK293 cells; conditions: HEK293, 1 μM, 3 h treatments (FIG. 5B)
BRAF D594G, sequence (P15056 with tags, fused parts or gaps D594G): as the sequence (P15056 with tags, fused parts or gaps V600E) above, with D594G, E600V counted along it
Description: as §1, §4, §5

[5] = biological target: BRAF G469A (Homo sapiens, UniProt P15056, G469A); test: Intramolecular Rluc PCA mutant BRAF reporter (G469A), transiently transfected HEK293 cells; conditions: HEK293, 1 μM, 3 h treatments (FIG. 5B)
BRAF G469A, sequence (P15056 with tags, fused parts or gaps G469A): as the sequence (P15056 with tags, fused parts or gaps V600E) above, with G469A, E600V counted along it
Description: as §1, §4, §5

[6] = biological target: T1, BRAF-V600E; test: Intramolecular Gluc PCA reporter GlucF[1]-BRAF-V600E-GlucF[2], transiently transfected HEK293 cells; conditions: HEK293, 1 μM, 3 h treatments (FIG. 8)
Description: as §1, §4, §5

[7] = biological target: T2, wild type BRAF (Homo sapiens, UniProt P15056); test: Intramolecular Gluc PCA reporter GlucF[1]-BRAF-GlucF[2] (wild type), transiently transfected HEK293 cells; conditions: HEK293, 1 μM, 3 h treatments (FIG. 8)
Description: as §1, §4, §5
Target sequence in this assay (P15056 with tags, fused parts or gaps): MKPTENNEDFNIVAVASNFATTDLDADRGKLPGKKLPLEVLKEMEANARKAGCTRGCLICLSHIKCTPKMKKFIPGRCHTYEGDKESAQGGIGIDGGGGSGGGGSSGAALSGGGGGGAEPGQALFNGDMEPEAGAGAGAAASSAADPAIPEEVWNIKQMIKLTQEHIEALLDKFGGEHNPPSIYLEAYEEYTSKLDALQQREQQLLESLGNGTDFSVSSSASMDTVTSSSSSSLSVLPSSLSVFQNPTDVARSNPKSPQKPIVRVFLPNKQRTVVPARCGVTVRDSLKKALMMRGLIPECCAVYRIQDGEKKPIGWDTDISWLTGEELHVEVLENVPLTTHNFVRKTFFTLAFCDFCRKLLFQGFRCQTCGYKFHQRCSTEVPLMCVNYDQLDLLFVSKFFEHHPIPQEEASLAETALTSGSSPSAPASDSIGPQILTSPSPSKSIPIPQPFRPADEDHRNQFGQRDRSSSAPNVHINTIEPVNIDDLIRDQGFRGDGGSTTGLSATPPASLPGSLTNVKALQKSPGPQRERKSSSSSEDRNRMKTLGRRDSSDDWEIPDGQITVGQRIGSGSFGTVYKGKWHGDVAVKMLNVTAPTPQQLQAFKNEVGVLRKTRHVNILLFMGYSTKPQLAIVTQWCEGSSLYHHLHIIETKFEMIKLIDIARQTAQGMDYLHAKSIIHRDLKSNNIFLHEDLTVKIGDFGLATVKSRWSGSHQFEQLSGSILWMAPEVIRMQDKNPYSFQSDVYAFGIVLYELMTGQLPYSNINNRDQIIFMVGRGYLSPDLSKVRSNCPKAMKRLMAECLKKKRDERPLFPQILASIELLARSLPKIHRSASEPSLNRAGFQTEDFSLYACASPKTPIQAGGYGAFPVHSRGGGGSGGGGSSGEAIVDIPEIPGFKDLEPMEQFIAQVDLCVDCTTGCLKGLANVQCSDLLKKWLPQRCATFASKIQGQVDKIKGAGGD

[8] = biological target: T2, wild type BRAF; test: Intramolecular Rluc PCA reporter F[1]-BRAF-F[2] (wild type), transiently transfected HEK293 cells; set-up: Renilla luciferase PCA fragment F[1]; Renilla luciferase PCA fragment F[2]; expressed in transfected cells; host or cells: HEK293 (transient, pcDNA3.1); conditions: for Effect on reporter luminescence signal: HEK293, 1 μM, 3 h treatments (FIG. 5A, 6A)
Description: as §1, §2, §3
Target sequence in this assay (P15056 with tags, fused parts or gaps): as the sequence (P15056 with tags, fused parts or gaps V600E) above, with E600V counted along it

Effect on Gluc PCA luciferase signal / conformation [7]	Time-dependent effect on reporter conformation (Rluc PCA signal) ([8]; HEK293, 1 μM (FIG. 4))	SMILES	Effect on reporter bioluminescence signal / conformation [1]	Time-dependent effect on reporter conformation (Rluc PCA signal) ([1]; BRAF-V600E reporter, up to 3 h (FIG. 4))	Effect on reporter bioluminescence signal / conformation [2]	Effect on reporter bioluminescence signal / conformation [3]	Effect on reporter bioluminescence signal / conformation [4]	Effect on reporter bioluminescence signal / conformation [5]	Effect on Gluc PCA luciferase signal / conformation [6]	Effect on reporter luminescence signal [8]
not affected	not affected	O=C(c1c(F)ccc(NS(=O)(=O)N2CC[C@@H](F)C2)c1F)c1c[nH]c2ncc(-c3cnc(C4CC4)nc3)cc12 [PLX8394]	significant shift to the closed conformation	immediate shift of the BRAF-V600E reporter to the closed conformation was observed increasing up to 3 h	significant shift to the closed conformation	significant shift to the closed conformation	significant shift to the closed conformation	significant shift to the closed conformation	enhanced the luciferase signal exclusively with the V600E BRAF mutant	not susceptible; also recorded: only slight changes in the luminescence signal
		N#CC(=C(/N)Sc1ccccc1N)/C(C#N)=C(\N)Sc1ccccc1N [U0126]	exclusively influenced by the BRAF specific inhibitors							only slight changes in the luminescence signal
		CC(C)(C)c1nc(-c2cccc(NS(=O)(=O)c3c(F)cccc3F)c2F)c(-c2ccnc(N)n2)s1 [dabrafenib]	shift to the closed conformation							only slight changes in the luminescence signal
		COC(=O)N[C@@H](C)CNc1nccc(-c2cn(C(C)C)nc2-c2cc(Cl)cc(NS(C)(=O)=O)c2F)n1 [encorafenib]	shift to the closed conformation							only slight changes in the luminescence signal
		COc1cc(F)c(F)c(Nc2ccc(I)cc2F)c1NS(=O)(=O)C1(C[C@H](O)CO)CC1 [refametinib]	exclusively influenced by the BRAF specific inhibitors							only slight changes in the luminescence signal
